The subject of series [1] is MKN-45 human gastric tumor xenograft. It counts as in vivo. To be noted: for BW loss: on day 21. The procedure: 5-FU was administered daily at 10 mg/kg intravenously, five days a week for two weeks. TS-1 was administered daily at 10 mg/kg orally, five days a week for two weeks. Capecitabine was administered daily at 360 mg/kg orally, five days a week for two weeks. CDDP was administered weekly at 5 mg/kg intravenously for two weeks.

For series [2], the system named is Hsc-39 human gastric tumor xenograft. The series is described as follows: Hsc-39 human gastric tumor xenograft model. It counts as in vivo. Background: A xenograft is tissue or cells of one species grown in another, often human tumour cells in immunodeficient mice.
Procedure: (§2) Specifically, gastric cancer cell lines MKN-45 and Hsc-39 were tested.
Series [3] has as its system NCI-H441 non-small cell lung cancer cells. The series is described as follows: 72 h MTT proliferation assay, equipotent fixed-ratio combination, isobologram analysis (Calcusyn). It counts as cell-based, human. The source says:
(§1) Erlotinib is an inhibitor of the epidermal growth factor receptor and is indicated for the treatment of patients with locally advanced or metastatic non-small cell lung cancer after failure of at least one prior chemotherapy regimen, and is indicated for the first-line treatment of patients with locally advanced, unresectable or metastatic pancreatic cancer.

The test system of series [4] is subcutaneous NCI-H522 NSCLC tumors. To be noted: for tolerability: mouse, in vivo, po. The procedure:
All regimens were orally administered once daily for 21 days. Tumor sizes were evaluated periodically during treatment at the indicated days post-inoculation.

The target in series [5] is T1, c-Met (Homo sapiens, UniProt P08581). The series is described as follows: c-Met biochemical assays.
In series [6] the target is T1, c-Met. Nature of the series: c-Met cell-based assays. To be noted: a number of cell-based assays.
The test system of series [7] is HT29 colon cancer cells. Nature of the series: 72 h MTT proliferation assay, equipotent fixed-ratio combination, isobologram analysis (Calcusyn). It counts as cell-based. To be noted: Homo sapiens.
Excerpt: as §1
Gefitinib is an inhibitor of the EGF receptor.

For series [8], the system named is MKN-45 human gastric tumor xenograft. The series is described as follows: MKN-45 human gastric tumor xenograft model (Example 88).
Procedure: as §2
Series [9] relates to MIA PaCa-2 pancreatic tumor cells. Nature of the series: 72 h MTT proliferation assay, equipotent fixed-ratio combination, isobologram analysis (Calcusyn).
Procedure: (§3) Cell culture and reagents: NCI-H441, PC-3, MIA PaCa-2, HeLa, HT-29 and A549 cancer cell lines (American Type Culture Collection) were cultured in Dulbecco's modified Eagle's medium containing 10% fetal bovine serum, 100 units/mL penicillin, 100 g/mL streptomycin, and 2 mM L-glutamine.
(§4) Duplicate independent experiments were performed for each cell line/drug combination. Data were then analyzed by Calcusyn™ (Biosoft, Cambridge, UK) data analysis software.
(§5) Cell survival analysis. In some experiments, cell survival was determined by the 3-(4,5-dimethylthiazol-2-yl)-2,5-diphenyl tetrazolium bromide (MTT) assay. Briefly, cells were plated in a 96-well plate at 5-10,000 cells per well, cultured for 24 hours in complete growth medium, and then treated with various drugs and drug combinations for 72 hours. […] Data were normalized to untreated controls and analyzed with Microsoft Excel.
(§6) Median effect plots and isobolograms were performed for each experiment.
Series [10] concerns NCI-H441 NSCLC human tumor xenograft. Nature of the series: NCI-H441 human lung tumor xenograft model. It counts as in vivo. To be noted: for BW loss: on day 4. The procedure:
Erlotinib was administered daily at 100 mg/kg or 50 mg/kg orally, five days a week for four weeks.
Gefitinib was administered daily at 50 mg/kg orally, five days a week for four weeks.

Series [11] concerns PC-3 cells. Nature of the series: 72 h MTT proliferation assay, equipotent fixed-ratio combination, isobologram analysis (Calcusyn).
Procedure: as §3, §4, §5, §6
Series [12] relates to DU-145. Nature of the series: 72 hr MTS assay, combination index by CalcuSyn. It counts as cell-based, human. To be noted: DU-145 (Prostate), chemotherapeutic agent combined with Agent A.
Series [13] has as its system 22RV1. Nature of the series: 72 hr MTS assay, combination index by CalcuSyn. It counts as cell-based, human. To be noted: 22RV1 (Prostate), chemotherapeutic agent combined with Agent A.
In series [14] the test system is PANC-1. Nature of the series: 72 hr MTS cytotoxicity assay, combination with gemcitabine. To be noted: PANC-1 (Pancreatic), chemotherapeutic agent combined with Agent A. It counts as cell-based, human. A general note: Formazan colour is commonly taken as a measure of viable cells.
Procedure: (§7) MIA PaCa-2 (also referred to as PACA2), PANC-1, CFPAC-1, and Hs766T human pancreatic cell lines were maintained in DMEM supplemented with 10% fetal bovine serum (FBS), penicillin, streptomycin, and fungizone. AsPC-1 cells were maintained in RPMI supplemented with 10% FBS, penicillin, streptomycin, and fungizone. HPAF-II cells were maintained in MEM supplemented with 10% FBS, penicillin, streptomycin, and fungizone. […] MTS reagent (Promega, Madison, Wis.) was added to each well and plates were incubated for 4 hr at 37° C.
Series [15] deals with AsPC-1. Described as above. To be noted: AsPC-1 (Pancreatic), chemotherapeutic agent combined with Agent A. It counts as cell-based, human.
Procedure: as §7
Series [16] deals with HPAF-II. Described as above. It counts as cell-based, human. To be noted: HPAF-II (Pancreatic), chemotherapeutic agent combined with Agent A.
Procedure: as §7
[17] abbreviates: Agent A 300 mg/kg p.o. qd × 5 × 2.
[18] abbreviates: Agent A 300 mg/kg p.o. qd × 5 × 2, on day 10.
Where [19] appears, read: Homo sapiens, NCI-H441, NCI-H441 NSCLC cells, predicted value used to set the ratio, read-out: IC50, predicted.
Where [20] appears, read: Homo sapiens, MIA PaCa-2, read-out: IC50, predicted, MIA PaCa-2 cells, predicted value used to set the ratio.
[21] abbreviates: Homo sapiens, PC-3, 72 h, PC-3, 72 h, single agents and fixed-ratio combination.
[22] abbreviates: Homo sapiens, PC-3, read-out: IC50, predicted, PC-3 cells, predicted value used to set the ratio.
[23] abbreviates: Capecitabine 360 mg/kg p.o. qd × 5 × 2.
Setting [24] is: Erlotinib 50 mg/kg p.o. qd × 5 × 4.
[25] abbreviates: Erlotinib 100 mg/kg p.o. qd × 5 × 4.
The mark [26] stands for this setting: Gefitinib 50 mg/kg p.o. qd × 5 × 4.

These results are taken from patent US9642847B2, “Combinational compositions and methods for treatment of cancer” (ArQule, Inc., priority 2009, dated 2017).

Where “and” joins values, the source holds several entries; their conditions need not be identical. Equal entries are not always repeated. Where two headings read alike, the source gives them in different places.

T1 sequence (P08581 25-1390): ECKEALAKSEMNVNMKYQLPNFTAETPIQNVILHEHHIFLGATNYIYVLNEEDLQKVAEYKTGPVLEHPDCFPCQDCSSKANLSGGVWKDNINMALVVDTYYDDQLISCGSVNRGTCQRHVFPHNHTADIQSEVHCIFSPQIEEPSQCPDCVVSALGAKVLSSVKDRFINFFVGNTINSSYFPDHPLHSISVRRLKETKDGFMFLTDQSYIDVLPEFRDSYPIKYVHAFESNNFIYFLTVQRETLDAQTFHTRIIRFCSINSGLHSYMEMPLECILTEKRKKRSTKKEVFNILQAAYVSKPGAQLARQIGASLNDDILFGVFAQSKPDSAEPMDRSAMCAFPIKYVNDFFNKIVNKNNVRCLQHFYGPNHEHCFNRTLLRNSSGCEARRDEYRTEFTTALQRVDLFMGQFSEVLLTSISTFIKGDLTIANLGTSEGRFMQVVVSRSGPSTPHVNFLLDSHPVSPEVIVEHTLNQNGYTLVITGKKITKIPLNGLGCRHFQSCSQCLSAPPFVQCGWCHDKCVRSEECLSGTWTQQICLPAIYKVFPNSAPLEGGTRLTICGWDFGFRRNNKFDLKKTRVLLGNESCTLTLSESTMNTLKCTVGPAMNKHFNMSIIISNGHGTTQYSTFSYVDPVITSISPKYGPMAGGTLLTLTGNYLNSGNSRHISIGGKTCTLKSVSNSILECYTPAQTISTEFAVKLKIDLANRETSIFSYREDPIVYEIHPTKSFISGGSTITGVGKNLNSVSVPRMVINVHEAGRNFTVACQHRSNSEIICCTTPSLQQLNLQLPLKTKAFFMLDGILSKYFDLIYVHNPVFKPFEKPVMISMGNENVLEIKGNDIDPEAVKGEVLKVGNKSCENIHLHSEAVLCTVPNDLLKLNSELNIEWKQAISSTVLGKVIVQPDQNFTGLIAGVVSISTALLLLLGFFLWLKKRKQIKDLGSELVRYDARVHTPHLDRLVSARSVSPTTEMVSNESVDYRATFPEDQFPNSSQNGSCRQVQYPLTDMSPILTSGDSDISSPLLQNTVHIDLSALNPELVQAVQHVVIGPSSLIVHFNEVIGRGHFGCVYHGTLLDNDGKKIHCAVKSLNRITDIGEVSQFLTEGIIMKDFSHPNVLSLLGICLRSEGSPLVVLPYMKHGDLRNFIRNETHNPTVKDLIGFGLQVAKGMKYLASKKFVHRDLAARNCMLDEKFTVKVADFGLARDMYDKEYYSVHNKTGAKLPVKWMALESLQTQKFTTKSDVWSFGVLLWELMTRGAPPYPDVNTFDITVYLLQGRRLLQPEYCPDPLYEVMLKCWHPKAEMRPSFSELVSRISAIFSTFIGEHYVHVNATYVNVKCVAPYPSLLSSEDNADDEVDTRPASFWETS

`COc1cccc([C@@H]2C(=O)NC(=O)[C@H]2c2cn3c4c(cccc24)CCC3)c1` (racemic) [Example 68, (±)-Trans-3-(5,6-dihydro-4H-pyrrolo[3,2,1-ij]quinolin-1-yl)-4-(3-methoxyphenyl)pyrrolidine-2,5-dione] came in with a melting point of 87 to 91 °C.
Same read-out and setting: under `O=C1NC(=O)[C@@H](c2cn3c4c(cccc24)CCC3)[C@@H]1c1cccc(O)c1` (racemic) [Example 69, (±)-Trans-3-(5,6-dihydro-4H-pyrrolo[3,2,1-ij]quinolin-1-yl)-4-(3-hydroxyphenyl)pyrrolidine-2,5-dione] stands 108 to 110 °C.
Same read-out and setting: under `O=C1NC(=O)[C@@H](c2cn3c4c(cccc24)CCC3)[C@@H]1c1ccc(F)cc1` (racemic) [Example 70, (±)-Trans-3-(5,6-dihydro-4H-pyrrolo[3,2,1-ij]quinolin-1-yl)-4-(4-fluorophenyl)pyrrolidine-2,5-dione] stands 208 to 210 °C; under `O=C1NC(=O)[C@@H](c2cn3c4c(cccc24)CCC3)[C@@H]1c1ccc(O)cc1` (racemic) [Example 72, (±)-Trans-3-(5,6-dihydro-4H-pyrrolo[3,2,1-ij]quinolin-1-yl)-4-(4-hydroxyphenyl)pyrrolidine-2,5-dione], 105 to 107 °C.
With `O=C1NC(=O)[C@@H](c2cn3c4c(cccc24)CCC3)[C@@H]1c1c[nH]c2ccccc12` (single isomer, unassigned) [Agent A], the Mortality in series [1] (setting [17]), in series [8] (setting [17]) and in series [10] (Agent A 300 mg/kg p.o. qd × 5 × 4) was 0/5 throughout. Besides, the “T/C Min” value is on record as 0.50 (4) in [1] (Agent A 300 mg/kg p.o. qd × 5 × 2, on day 4); 0.63 (10) in [2] (setting [18]); 0.61 (15) in series [8] (Agent A 300 mg/kg p.o. qd × 5 × 2, on day 15); 0.52 (17) in series [10] (Agent A 300 mg/kg p.o. qd × 5 × 4, on day 17). For the same compound, the BW loss is −1.7 (21) g in series [1] (setting [17]) and −1.3 (10) g in series [8] (setting [18]). Besides, the IC50 was 300 nM in series [3] (setting [19]); 179 nM in series [7] (HT-29, 72 h, HT29, 72 h, single agents and fixed-ratio combination, read-out: IC50); 150 nM in series [7] (HT-29, HT29 cells, predicted value used to set the ratio, read-out: IC50, predicted); 150 nM in [9] (setting [20]); 875 nM in series [11] (setting [21]); 1000 nM in series [11] (setting [22]). The IC50 in series [11] (PC-3, 72 h, single agents and fixed-ratio combination) was 553 nM. The tolerability result in [4] is listed as “well-tolerated”. Also, the “effects on body weight gain” value in series [4] (oral gavage once daily for 21 days, all cohorts) was “no adverse effects on body weight gain”. For the same compound, the c-Met activity entry in series [5] and in series [6] was “inhibit c-Met activity” in each case.
Turning to `CCCCCOC(=O)Nc1nc(=O)n([C@@H]2O[C@H](C)[C@@H](O)[C@H]2O)cc1F` [Capecitabine, capecitabine], in [1] (setting [23]), the Mortality is 0/5 and the BW loss is −1.4 (21) g. Besides, the “T/C Min” value in series [1] (Capecitabine 360 mg/kg p.o. qd × 5 × 2, on day 14) is given as 0.42 (14).
Regarding `N.N.[Cl][Pt][Cl]` [Cisplatin, cisplatin], the Mortality in series [1] (Cisplatin 5 mg/kg i.v. Weekly × 2) is recorded as 0/5. Further, in [1] (Cisplatin 5 mg/kg i.v. Weekly × 2, on day 10), the “T/C Min” value is 0.55 (10). Further, the IC50 in [9] (MIA PaCa-2, 72 h, single agents and fixed-ratio combination) is 3370 nM and 3790 nM.
For `CC(=O)O[C@@]12CO[C@@H]1C[C@H](O)[C@@]1(C)C(=O)[C@H](O)C3=C(C)[C@@H](OC(=O)[C@H](O)[C@@H](NC(=O)OC(C)(C)C)c4ccccc4)C[C@@](O)([C@@H](OC(=O)c4ccccc4)[C@H]21)C3(C)C` [Docetaxel, docetaxel], the “Combination Conclusion” value in series [12] and in series [13] was “Synergism” throughout. Also, the “Combination Index Values at ED50” value in [12] and in series [13] was 0.7 throughout. Moreover, the “T/C Min” value is listed as 0.46 (17) in series [2] (Docetaxel 7.5 mg/kg i.v. single, on day 17); 0.40 (17) in series [2] (Docetaxel 15 mg/kg i.v. single, on day 17); 0.63 (15) in series [8] (Docetaxel 7.5 mg/kg i.v. single, on day 15); 0.68 (7) in [8] (Docetaxel 15 mg/kg i.v. single, on day 7). The Mortality in series [8] (Docetaxel 7.5 mg/kg i.v. single) and in series [8] (Docetaxel 15 mg/kg i.v. single) was 0/5 in each case. Besides, the IC50 in series [9] (Homo sapiens, MIA PaCa-2, 72 h, MIA PaCa-2, 72 h, single agents and fixed-ratio combination) is 5.1 nM; in [9] (setting [20]), approximately 5 nM; in series [11] (setting [21]), 6 nM; in [11] (setting [22]) it was approximately 5 nM; in series [11] (PC-3, 72 h, single agents and fixed-ratio combination, listed as Taxotere) it was 3.5 nM.
For `C#Cc1cccc(Nc2ncnc3cc(OCCOC)c(OCCOC)cc23)c1` [Erlotinib, erlotinib], the IC50 is 3560 nM in series [3] (Homo sapiens, NCI-H441, 72 h, NCI-H441, 72 h, single agents and fixed-ratio combination, read-out: IC50); approximately 1000 nM in series [3] (setting [19]); 3160 nM in [3] (NCI-H441, 72 h, single agents and fixed-ratio combination, read-out: IC50); 56300 nM in [7] (HT-29, HT29, 72 h, single agents and fixed-ratio combination, read-out: IC50). The Mortality in series [10] (setting [24]) and in series [10] (setting [25]) was 0/5 throughout. In addition, the BW loss was −0.6 (4) g in series [10] (setting [24]) and −1.0 (4) g in series [10] (setting [25]). Besides, the “T/C Min” value is 0.59 (17) in series [10] (Erlotinib 50 mg/kg p.o. qd × 5 × 4, on day 17) and 0.50 (17) in [10] (Erlotinib 100 mg/kg p.o. qd × 5 × 4, on day 17).
Regarding `O=c1[nH]cc(F)c(=O)[nH]1` [Example 5-FU, fluorouracil], in series [1] (5-FU 10 mg/kg i.v. qd × 5 × 2), the Mortality is recorded as 0/5 and the BW loss is −3.4 (21) g. In addition, the “T/C Min” value in series [1] (5-FU 10 mg/kg i.v. qd × 5 × 2, on day 14) is on record as 0.63 (14).
On to `O=C1NC(=O)C(c2cn3c4c(cccc24)CCC3)=C1c1ccc(OCc2ccccc2)cc1` [Example 66, 3-[4-(benzyloxy)phenyl]-4-(5,6-dihydro-4H-pyrrolo[3,2,1-ij]quinolin-1-yl)-1H-pyrrole-2,5-dione], for which the melting point lay in the range of 262 to 265 °C.
As to `O=C1NC(=O)C(c2cn3c4c(cccc24)CCC3)=C1c1ccc(F)cc1` [Example 67, 3-(5,6-dihydro-4H-pyrrolo[3,2,1-ij]quinolin-1-yl)-4-(4-fluorophenyl)-1H-pyrrole-2,5-dione], the melting point was in the range of 234 to 235 °C.
`COc1cc2ncnc(Nc3ccc(F)c(Cl)c3)c2cc1OCCCN1CCOCC1` [Gefitinib, gefitinib]: in [10] (setting [26]), the Mortality was 0/5 and the BW loss is on record as −0.5 (4) g. Besides, in [10] (Gefitinib 50 mg/kg p.o. qd × 5 × 4, on day 21), the “T/C Min” value is given as 0.60 (21).
As to `Nc1ccn([C@@H]2O[C@H](CO)[C@@H](O)C2(F)F)c(=O)n1` [Gemcitabine, gemcitabine], the “Combination Conclusion” value in series [14], in [15] and in series [16] was “Synergism” in each case. The figures for the “Combination Index Values at ED50” value in [14], in series [15] and in series [16] were 0.7, 0.6 and 0.2, respectively.
Consider `CNC(=O)c1cc(Oc2ccc(NC(=O)Nc3ccc(Cl)c(C(F)(F)F)c3)cc2)ccn1` [sorafenib], for which the tolerability entry in series [4] is “well-tolerated”.

One may read the melting point as the temperature, or range, at which the solid turns liquid. The IC50 is the concentration at which inhibition is half-maximal.
